From ChEMBL document CHEMBL3399947, “Structure activity relationship of selective GABA uptake inhibitors” (Bioorg Med Chem, 2015) come the findings set out here.

Molecules are shown by their SMILES. pIC50: −log10 of the molar value.

Common to all, as to format: cell-based
The target in experiment [1] is Sodium- and chloride-dependent GABA transporter 1 (Mus musculus, UniProt P31648). The experiment in a line: Inhibition of mouse mGAT1 expressed in HEK293 cells assessed as inhibition of [3H]GABA uptake after 3 mins incubation by TopCount microplate scintillation counting analysis. The note with it: for pIC50: read-out: IC50; for IC50: read-out: pIC50 (converted).
Experiment [2] has as its target T1, GABA transporter 2 (Mus musculus, UniProt P31651).
T1 sequence (P31651 whole entry): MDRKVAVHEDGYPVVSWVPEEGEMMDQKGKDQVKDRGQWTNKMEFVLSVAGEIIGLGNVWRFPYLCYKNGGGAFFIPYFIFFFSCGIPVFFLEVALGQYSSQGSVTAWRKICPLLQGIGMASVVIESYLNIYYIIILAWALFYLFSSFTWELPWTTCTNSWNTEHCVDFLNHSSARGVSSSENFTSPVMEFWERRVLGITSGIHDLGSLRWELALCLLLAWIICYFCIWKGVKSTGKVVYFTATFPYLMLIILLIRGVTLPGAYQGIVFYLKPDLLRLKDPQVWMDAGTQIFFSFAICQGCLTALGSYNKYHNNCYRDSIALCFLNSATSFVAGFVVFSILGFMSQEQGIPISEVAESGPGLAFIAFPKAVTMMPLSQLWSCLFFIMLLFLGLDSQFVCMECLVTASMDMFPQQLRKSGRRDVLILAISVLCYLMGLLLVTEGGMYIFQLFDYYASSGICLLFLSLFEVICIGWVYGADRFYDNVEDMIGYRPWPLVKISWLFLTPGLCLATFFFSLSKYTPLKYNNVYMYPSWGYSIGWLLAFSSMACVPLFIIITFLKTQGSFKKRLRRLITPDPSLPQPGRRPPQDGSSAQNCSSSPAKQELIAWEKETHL
The experiment can be described thus: Inhibition of mouse mGAT2 expressed in HEK293 cells assessed as inhibition of [3H]GABA uptake after 3 mins incubation by TopCount microplate scintillation counting analysis. The note with it: read-out: IC50.

The target of experiment [3] is T2, GABA transporter 3 (Mus musculus, UniProt P31649).
T2 sequence (P31649 whole entry): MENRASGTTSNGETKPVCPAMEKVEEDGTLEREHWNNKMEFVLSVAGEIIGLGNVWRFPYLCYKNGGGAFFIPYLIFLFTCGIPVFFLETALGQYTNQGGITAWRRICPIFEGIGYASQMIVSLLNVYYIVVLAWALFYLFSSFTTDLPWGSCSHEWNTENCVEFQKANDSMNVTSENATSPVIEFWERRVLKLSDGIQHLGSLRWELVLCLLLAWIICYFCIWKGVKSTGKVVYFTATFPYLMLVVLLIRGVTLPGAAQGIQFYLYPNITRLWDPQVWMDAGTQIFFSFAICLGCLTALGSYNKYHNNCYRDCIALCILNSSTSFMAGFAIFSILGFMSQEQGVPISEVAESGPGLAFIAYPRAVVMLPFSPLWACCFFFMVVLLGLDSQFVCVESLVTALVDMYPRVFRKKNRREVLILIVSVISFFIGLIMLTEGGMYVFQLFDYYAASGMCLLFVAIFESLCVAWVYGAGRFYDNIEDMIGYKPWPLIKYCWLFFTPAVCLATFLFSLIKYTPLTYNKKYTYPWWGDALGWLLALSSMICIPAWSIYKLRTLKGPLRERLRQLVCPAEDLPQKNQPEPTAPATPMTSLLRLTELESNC
The experiment can be described thus: Inhibition of mouse mGAT3 expressed in HEK293 cells assessed as inhibition of [3H]GABA uptake after 3 mins incubation by TopCount microplate scintillation counting analysis. The note with it: read-out: IC50.

In experiment [4] the target is T3, GABA transporter 4 (Mus musculus, UniProt P31650).
T3 sequence (P31650 whole entry): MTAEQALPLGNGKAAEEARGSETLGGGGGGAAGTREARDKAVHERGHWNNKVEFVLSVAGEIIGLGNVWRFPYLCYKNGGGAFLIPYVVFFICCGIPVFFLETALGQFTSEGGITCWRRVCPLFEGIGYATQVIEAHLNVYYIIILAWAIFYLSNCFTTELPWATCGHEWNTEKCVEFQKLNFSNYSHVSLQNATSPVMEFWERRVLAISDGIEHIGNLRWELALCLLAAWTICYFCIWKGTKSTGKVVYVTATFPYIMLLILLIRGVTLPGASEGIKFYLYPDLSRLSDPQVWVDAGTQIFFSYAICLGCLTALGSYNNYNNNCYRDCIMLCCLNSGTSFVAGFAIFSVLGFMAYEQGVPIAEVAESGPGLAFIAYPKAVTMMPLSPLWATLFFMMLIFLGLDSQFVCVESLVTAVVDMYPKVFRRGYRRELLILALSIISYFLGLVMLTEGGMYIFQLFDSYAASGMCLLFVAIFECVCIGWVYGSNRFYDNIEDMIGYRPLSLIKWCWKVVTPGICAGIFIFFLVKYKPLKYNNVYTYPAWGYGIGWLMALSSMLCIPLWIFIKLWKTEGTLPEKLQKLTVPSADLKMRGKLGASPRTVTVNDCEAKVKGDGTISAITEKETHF
The experiment in a line: Inhibition of mouse mGAT4 expressed in HEK293 cells assessed as inhibition of [3H]GABA uptake after 3 mins incubation by TopCount microplate scintillation counting analysis. The conditions noted are these: for pIC50: read-out: IC50.

The pIC50 is −log10 of the IC50, conventionally taken in molar units. In the case of `C=CCN1CCN(CCC=C(c2sccc2C)c2sccc2C)CC(C(=O)O)C1` (stereo not given), the pIC50 in experiment [1] is 3.26; in experiment [2] it was 3.80; in experiment [3], 2.96; in experiment [4], 3.25.

As to `CN(CCON=C(c1ccccc1)c1ccccc1)[C@@H]1CCCC[C@H]1C(=O)O`, the pIC50 in experiment [1] is under 2.70; in experiment [2], 3.06; in experiment [3] (hek293), under 2.70; in experiment [4] (hek293), under 2.70.

Take `O=C(O)C1CN(CCO)CCN(CCON=C(c2ccccc2)c2ccccc2)C1` (stereo not given): the pIC50 in experiment [1], in experiment [2], in experiment [3] and in experiment [4] was under 3.00 in each case.

For the compound `Cc1ccsc1C(=CCCN(C)C1CCCC=C1C(=O)O)c1sccc1C` (stereo in doubt; (E2)-6a), the pIC50 in experiment [1] is 3.39; in experiment [2], 4.17; in experiment [3], 3.23; in experiment [4], 3.38.

As to `Cc1ccsc1C(=CCCN(C)[C@H]1CCCC[C@@H]1C(=O)O)c1sccc1C`, the pIC50 in experiment [1] was 3.58; in experiment [2], 4.21; in experiment [3] it was 3.32; in experiment [4] it was 3.58.

For the compound `Cc1ccsc1C(=CCCN(C)CCC(=O)O)c1sccc1C`, the pIC50 in experiment [1] was 3.02; in experiment [2], 3.03; in experiment [3] it was 3.46; in experiment [4] it was 2.89.

For the compound `CN(CCC=C1c2ccccc2CCc2ccccc21)[C@@H]1CCCC[C@@H]1CO`, the pIC50 in experiment [1] is 3.54; in experiment [2], 4.30; in experiment [3] it was 3.82; in experiment [4], 3.77.

As for `CN(CCC=C1c2ccccc2CCc2ccccc21)[C@H]1CCCC[C@H]1CO`, the pIC50 in experiment [1] was 3.72; in experiment [2] it was 4.55; in experiment [3] it was 3.83; in experiment [4] it was 3.90.

For `Cc1ccsc1C(=CCCN1CCN(CCON=C(c2ccccc2)c2ccccc2)CC(C(=O)O)C1)c1sccc1C` (stereo not given), the pIC50 in experiment [1], in experiment [2], in experiment [3] and in experiment [4] was under 3.00 in each case.

For `Cc1ccsc1C(=CCCN(C)C1CCCC=C1C(=O)O)c1sccc1C` (stereo in doubt; (E1)-6a), the pIC50 was 3.77 in experiment [1], 4.12 in experiment [2], 3.12 in experiment [3] and 3.33 in experiment [4].

As for `CCOC(=O)[C@@H]1CCCC[C@@H]1N(C)CCOC(c1ccc(C(F)(F)F)cc1)c1ccc(C(F)(F)F)cc1`, the negative-log IC50 (pIC50) in experiment [1] was 3.29; in experiment [2] it was 3.38; in experiment [3], 3.19; in experiment [4], 2.83.

With `CCC(C)N1CCN(CCC=C(c2sccc2C)c2sccc2C)CC(C(=O)O)C1` (stereo not given), the pIC50 in experiment [1] was under 3.00; in experiment [2], 3.80; in experiment [3] it was under 3.00; in experiment [4], under 3.00.

In the case of `Cc1ccsc1C(=CCCN(C)[C@@H]1CCCC[C@@H]1CO)c1sccc1C`, the pIC50 is 3.62 in experiment [1], 4.46 in experiment [2], 3.88 in experiment [3] and 3.75 in experiment [4].

Regarding `O=C(O)C1CNCCN(CCON=C(c2ccccc2)c2ccccc2)C1` (stereo not given), the pIC50 in experiment [1] is 3.18; in experiment [2] it was under 3.00; in experiment [3] it was under 3.00; in experiment [4] it was under 3.00. For the same compound, the IC50 in experiment [1] was 5250 µM.

Take `CN(CCOC(c1ccc(C(F)(F)F)cc1)c1ccc(C(F)(F)F)cc1)[C@@H]1CCCC[C@@H]1CO`: the pIC50 in experiment [1] is 3.65; in experiment [2], 4.20; in experiment [3] it was 3.92; in experiment [4], 3.06.

For the compound `CCOC(=O)[C@H]1CCCC[C@H]1N(C)CCOC(c1ccc(C(F)(F)F)cc1)c1ccc(C(F)(F)F)cc1`, the pIC50 in experiment [1] is 3.37; in experiment [2], 3.49; in experiment [3] it was 3.29; in experiment [4], 2.92.

On to `O=C(O)C1CN(CCON=C(c2ccccc2)c2ccccc2)CCN1` (racemic), for which the pIC50 in experiment [1] was 3.67; in experiment [2], under 3.00; in experiment [3], under 3.00; in experiment [4] it was under 3.00.

In the case of `CN(CCC=C1c2ccccc2CCc2ccccc21)C1CCCC=C1C(=O)O` (stereo not given), the pIC50 in experiment [1] is 3.37; in experiment [2] it was 4.09; in experiment [3] it was 3.16; in experiment [4], 3.09. Moreover, the IC50 in experiment [1] was 537 µM.

As to `CN(CCOC(c1ccc(C(F)(F)F)cc1)c1ccc(C(F)(F)F)cc1)[C@H]1CCCC[C@H]1CO`, the pIC50 in experiment [1] was 3.44; in experiment [2], 3.88; in experiment [3], 3.48; in experiment [4], 3.74.

Turning to `CCCCN1CCN(CCC=C(c2sccc2C)c2sccc2C)CC(C(=O)O)C1` (stereo not given), the pIC50 in experiment [1] is 3.73; in experiment [2] it was 4.09; in experiment [3] it was 3.19; in experiment [4], 3.17. Also, the IC50 in experiment [1] is 501 µM.

Take `O=C(O)CCNCCON=C(c1ccccc1)c1ccccc1`: the pIC50 in experiment [1] was 5.16; in experiment [2], under 3.00; in experiment [3] it was 3.54; in experiment [4], 3.51.

As to `O=C(O)C1CN(CCOC(c2ccc(C(F)(F)F)cc2)c2ccc(C(F)(F)F)cc2)CCN1` (racemic), the pIC50 in experiment [1] was 4.08; in experiment [2] it was 3.40; in experiment [3] it was under 3.00; in experiment [4] it was 2.75.

In the case of `CN(CCC=C1c2ccccc2CCc2ccccc21)[C@H]1CCCC[C@@H]1C(=O)O`, the pIC50 was 3.02 in experiment [1], 3.86 in experiment [2], 2.91 in experiment [3] and 3.15 in experiment [4]. In addition, the IC50 in experiment [4] (read-out: pIC50 (converted)) was 724 µM.

For the compound `CN(CCOC(c1ccc(C(F)(F)F)cc1)c1ccc(C(F)(F)F)cc1)C1CCCC=C1C(=O)O` (stereo not given), the pIC50 was under 3.00 in experiment [1], 3.97 in experiment [2], under 3.00 in experiment [3] and under 3.00 in experiment [4].

Consider `CN(CCOC(c1ccc(C(F)(F)F)cc1)c1ccc(C(F)(F)F)cc1)[C@@H]1CCCC[C@H]1C(=O)O`, for which the pIC50 in experiment [1] is 3.38; in experiment [2], 4.01; in experiment [3] it was 3.41; in experiment [4] it was 3.52.

On to `O=C(O)C1CNCCN1CCON=C(c1ccccc1)c1ccccc1` (racemic), for which the pIC50 in experiment [1], in experiment [2], in experiment [3] and in experiment [4] was under 3.00 in each case.

As for `Cc1ccsc1C(=CCCN(C)[C@H]1CCCC[C@H]1C(=O)O)c1sccc1C`, the pIC50 in experiment [1] is 3.25; in experiment [2] it was 4.67; in experiment [3], 3.03; in experiment [4], 3.54.

Consider `CN(CCC=C1c2ccccc2CCc2ccccc21)CCCP(=O)(O)O`, for which the pIC50 in experiment [1], in experiment [2], in experiment [3] and in experiment [4] was under 3.00 each time.

For `CNCCC=C1c2ccccc2CCc2ccccc21` [NORTRIPTYLINE], the pIC50 in experiment [1] was 3.41; in experiment [2] it was 3.77; in experiment [3], 3.57; in experiment [4] it was 3.60.
